Experiments:
[1] = biological target: T1, neutral endopeptidase (NEP) (Rattus norvegicus, UniProt P07861); assay: inhibition of neutral endopeptidase (NEP), substrate not stated with the result; format: biochemical; settings: for relative NEP inhibiting activity of isomers: compared with the other isomer; for IC50: substrate (GAAP or ANF) not stated
T1 sequence (P07861 1-750): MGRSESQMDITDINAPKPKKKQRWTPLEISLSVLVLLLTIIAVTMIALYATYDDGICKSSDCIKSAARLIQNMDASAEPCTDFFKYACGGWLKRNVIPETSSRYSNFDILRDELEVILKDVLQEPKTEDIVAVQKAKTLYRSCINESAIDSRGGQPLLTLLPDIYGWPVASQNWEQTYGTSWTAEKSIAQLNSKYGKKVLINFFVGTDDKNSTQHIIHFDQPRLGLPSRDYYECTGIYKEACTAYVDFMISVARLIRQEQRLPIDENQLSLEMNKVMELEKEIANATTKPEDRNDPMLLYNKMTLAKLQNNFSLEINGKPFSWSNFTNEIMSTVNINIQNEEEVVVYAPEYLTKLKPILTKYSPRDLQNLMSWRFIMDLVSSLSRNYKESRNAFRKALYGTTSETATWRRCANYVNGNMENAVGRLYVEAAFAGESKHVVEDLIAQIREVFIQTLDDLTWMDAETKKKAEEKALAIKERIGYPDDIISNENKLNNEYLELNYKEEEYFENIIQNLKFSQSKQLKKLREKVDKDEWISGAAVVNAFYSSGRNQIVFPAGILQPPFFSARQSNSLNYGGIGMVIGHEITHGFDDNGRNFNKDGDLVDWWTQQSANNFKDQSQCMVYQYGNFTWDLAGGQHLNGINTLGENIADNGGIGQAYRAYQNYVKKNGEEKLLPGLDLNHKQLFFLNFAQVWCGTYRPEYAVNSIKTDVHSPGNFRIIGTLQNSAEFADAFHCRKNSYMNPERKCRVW
Procedure: The in vitro inhibition of neutral endopeptidase (NEP) 3.4.24.11 can be determined as follows:
Neutral endopeptidase 3.4.24.11 activity is determined by the hydrolysis of the substrate glutaryl-Ala-Ala-Phe-2-naphthylamide (GAAP) using a modified procedure of Orlowski and Wilk (1981). The incubation mixture (total volume 125 μl) contains 4.2 μg of protein (rat kidney cortex membranes prepared by method of Maeda et al, 1983), 50 mM tris buffer, pH 7.4 at 25° C., 500 μM substrate (final concentration), and leucine aminopeptidase M (2.5 μg). The mixture is incubated for 10 minutes at 25° C. and 100 μl of fast garnet (250 μg fast garnet/ml of 10% Tween 20 in 1M sodium acetate, pH 4.2) is added. Enzyme activity is measured spectrophotometrically at 540 nm. One unit of NEP 24.11 activity is defined as 1 nmol of 2-naphthylamine released per minute at 25° C. at pH 7.4. IC50 values for inhibition of the enzyme are determined, i.e. the concentration of test compound required for 50% inhibition of the release of 2-naphthylamine.
Neutral endopeptidase activity is also determined using ANF as a substrate. A trial natriuretic factor degrading activity is determined by measuring the disappearance of rat-ANF (r-ANF) using a 3 minute reverse phase-HPLC separation. An aliquot of the enzyme in 50 mM Tris HCl buffer, pH 7.4, is preincubated at 37° C. for 2 minutes and the reaction is initiated by the addition of 4 nmol of r-ANF in a total volume of 50 μl. The reaction is terminated after 4 minutes with the addition of 30 μl of 0.27% trifluoroacetic acid (TFA). Forty microliters of the mixture is injected into a reverse phase-HPLC and analyzed using a C4 cartridge in a 3 minute, isocratic separation. Twenty-three percent of buffer B (0.1% TFA in 80% acetonitrile) is used. Buffer A is 0.1% TFA in water. One unit of activity is defined as the hydrolysis of 1 nmol of r-ANF per minute at 37° C. at pH 7.4. IC50 values for inhibition of the enzyme are determined, i.e. the concentration of test compound required for 50% inhibition of the hydrolysis of ANF.
The test compound is dissolved in dimethyl sulfoxide or 0.25M sodium bicarbonate solution, and the solution is diluted with pH 7.4 buffer to the desired concentration.
In vitro testing is most appropriate for the free mercapto carboxylic acids of the invention.

[2] = biological target: T2, Neutral endopeptidase 3.4.24.11 (Rattus norvegicus, UniProt P07861); assay: in vitro inhibition of neutral endopeptidase (NEP) 3.4.24.11, GAAP substrate; format: biochemical; settings: pH 7.4, 25° C.
T2 construct: rat kidney cortex membranes prepared by method of Maeda et al, 1983; from tissue; host or cells: rat kidney cortex membranes
T2 sequence (P07861 1-750): T1 sequence (P07861 1-750)

[3] = biological target: T3, angiotensin-converting enzyme (ACE) (Oryctolagus cuniculus, UniProt P12822); assay: in vitro inhibition of the angiotensin-converting enzyme (ACE), hippuryl-histidyl-leucine substrate; format: biochemical, rabbit; settings: 37° C., 30 minutes
T3 construct: angiotensin-converting enzyme preparation (from lungs of adult male rabbits); from tissue; host or cells: lungs of adult male rabbits
T3 sequence (P12822 34-1310): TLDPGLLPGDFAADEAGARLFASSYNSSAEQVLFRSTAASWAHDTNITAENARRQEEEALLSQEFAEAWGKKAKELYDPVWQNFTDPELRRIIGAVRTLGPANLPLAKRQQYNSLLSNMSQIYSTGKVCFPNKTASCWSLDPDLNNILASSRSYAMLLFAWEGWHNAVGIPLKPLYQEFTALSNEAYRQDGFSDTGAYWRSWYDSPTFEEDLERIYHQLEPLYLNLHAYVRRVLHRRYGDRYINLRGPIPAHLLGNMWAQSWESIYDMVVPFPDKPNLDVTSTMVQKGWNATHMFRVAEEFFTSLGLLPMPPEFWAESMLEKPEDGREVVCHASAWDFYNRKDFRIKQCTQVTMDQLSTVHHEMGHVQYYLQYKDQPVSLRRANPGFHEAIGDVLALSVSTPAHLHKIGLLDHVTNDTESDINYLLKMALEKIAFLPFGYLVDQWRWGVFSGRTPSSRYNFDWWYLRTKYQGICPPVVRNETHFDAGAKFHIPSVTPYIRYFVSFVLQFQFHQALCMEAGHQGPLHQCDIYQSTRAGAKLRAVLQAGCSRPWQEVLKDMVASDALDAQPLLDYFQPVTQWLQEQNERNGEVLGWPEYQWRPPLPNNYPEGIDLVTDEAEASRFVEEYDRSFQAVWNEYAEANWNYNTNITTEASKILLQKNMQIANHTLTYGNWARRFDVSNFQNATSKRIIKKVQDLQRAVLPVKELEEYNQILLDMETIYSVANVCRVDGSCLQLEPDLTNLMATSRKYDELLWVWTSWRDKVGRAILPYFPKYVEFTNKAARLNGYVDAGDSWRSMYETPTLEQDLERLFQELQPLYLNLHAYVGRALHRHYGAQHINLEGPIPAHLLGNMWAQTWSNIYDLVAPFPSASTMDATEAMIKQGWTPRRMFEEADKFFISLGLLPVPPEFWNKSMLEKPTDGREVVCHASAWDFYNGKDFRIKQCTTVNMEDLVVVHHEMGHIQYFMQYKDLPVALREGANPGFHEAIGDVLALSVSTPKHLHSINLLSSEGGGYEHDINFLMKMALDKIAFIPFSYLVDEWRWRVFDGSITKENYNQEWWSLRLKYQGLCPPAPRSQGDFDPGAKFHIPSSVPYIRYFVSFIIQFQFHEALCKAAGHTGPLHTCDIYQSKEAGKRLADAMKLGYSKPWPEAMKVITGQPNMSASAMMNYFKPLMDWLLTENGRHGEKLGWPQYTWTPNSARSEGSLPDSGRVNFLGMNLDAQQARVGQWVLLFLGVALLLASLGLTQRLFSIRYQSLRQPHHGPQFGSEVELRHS
Procedure: Biophys. Acta 293, p. 451 (1973). For example, said compounds are dissolved at about 1 mM concentration in phosphate buffer. To 100 microliters of solutions of the test compound in phosphate buffer, diluted to the desired concentration, are added 100 microliters of 5 mM hippuryl-histidyl-leucine in phosphate buffer, followed by 50 microliters of the angiotensin-converting enzyme preparation (from lungs of adult male rabbits) in Tris buffer, containing potassium and magnesium chloride, as well as sucrose. Said solutions are incubated at 37° C. for 30 minutes and combined with 0.75 ml of 0.6N aqueous sodium hydroxide to stop further reaction. Then 100 microliters of a 0.2% solution of o-phthalaldehyde in methanol are added at room temperature, and 10 minutes later 100 microliters of 6N hydrochloric acid. These samples are read against water in a spectrophotometer set at 360 nm, and the optical densities thereof estimated. They are corrected for the standard curve via a conversion factor expressing nanomoles of histidyl-leucine formed during said 30 minute incubation period. The results are plotted against drug concentration to determine the IC50, i.e., the drug concentration which gives half the activity of the control sample containing no drug.

Row | Compound | relative NEP inhibiting activity of isomers [1] | IC50 [2] [nM] | IC50 [3] [nM] | IC50 [1] [nM]
1 | CC(=O)SC[C@H]1CCCCCC[C@H](C(=O)O)NC1=O (relative stereo) [Example 16, trans 3-(acetylthiomethyl)-2-oxo-1-azacyclodecane-10-carboxylic acid] | more active NEP inhibiting enantiomer | – | – | –
2 | O=C1N[C@@H](C(=O)O)CCCCCC[C@@H]1CS (relative stereo) [trans 3-mercaptomethyl-2-oxo-1-azacyclodecane-10-carboxylic acid] | more active neutral endopeptidase (NEP) inhibiting diastereoisomer | ~3 | – | –
3 | O=C1N[C@H](C(=O)O)CSCCCCCCCC1CS (single isomer, unassigned) | more active NEP inhibiting isomer | – | 12 | 18
4 | COC(=O)C1CCCCCCCCCCC(CSC(C)=O)C(=O)N1 (single isomer, unassigned) [Example 24 (minor isomer), methyl 3-(acetylthiomethyl)-2-oxo-1-azacyclotetradecane-14-carboxylate] | more active NEP inhibiting isomer | – | – | –
5 | O=C1NC(C(=O)O)CCCCCCCCCCC1CS (single isomer, unassigned) [Example 25(b), 3-mercaptomethyl-2-oxo-1-azacyclotetradecane-14-carboxylic acid] | more active NEP inhibiting isomer | – | – | –
6 | O=C1N[C@H](C(=O)O)CSCCCCCCCCC1CS (single isomer, unassigned) [Example 35(b)] | more active NEP inhibiting isomer | – | – | –

The remaining lines, values ahead:

Row | relative NEP inhibiting activity of isomers [1] | IC50 [2] [nM] | IC50 [3] [nM] | IC50 [1] [nM] | Compound
7 | less active diastereoisomer | – | – | – | O=C1N[C@@H](C(=O)O)CCCCCC[C@H]1CS (relative stereo) [Example 2(b), 3-mercaptomethyl-2-oxo-1-azacyclodecane-10-carboxylic acid]
8 | – | – | ~45 | ~30 | O=C1NC(C(=O)O)CCCCCCCCCCC1CS (stereo not drawn) [3-mercaptomethyl-2oxo-1-azacyclotetradecane-14-carboxylic acid]
